For test [1], the system named is human C4-2 prostate cancer xenografts. Kind of test: Tumor volume growth of C4-2 xenografts treated with SIPP preparations. In kind it is in vivo, nude mice. The conditions noted are these: tumor volume growth curves.
Source text: Tumor volume growth curves for nude mice bearing human C4-2 prostate cancer xenografts treated with various preparations of SIPPs. (A) Black squares, no treatment controls.
Test [2] deals with T1, neurotensin receptor 1 (NTR1) (Homo sapiens, UniProt P30989).
T1 construct: NTR1, which is highly expressed in prostate cancer cells but not in normal prostate epithelial cells; endogenous in cells; PC-3M for the xenograft
The conditions noted are these: combined with radiation; cited from earlier work.

Test [3] relates to PC-3M orthotopic human tumor xenografts. The following applies: combined with radiation; cited from earlier work.
For the next test, the system named is NF-κB. The conditions noted are these: cited from earlier work.

This is an account of results in patent publication US20140271470A1, “TARGETED THERANOSTICS FOR METASTATIC PROSTATE CANCER” (priority 2013, published 2014).

T1 sequence (P30989 whole entry): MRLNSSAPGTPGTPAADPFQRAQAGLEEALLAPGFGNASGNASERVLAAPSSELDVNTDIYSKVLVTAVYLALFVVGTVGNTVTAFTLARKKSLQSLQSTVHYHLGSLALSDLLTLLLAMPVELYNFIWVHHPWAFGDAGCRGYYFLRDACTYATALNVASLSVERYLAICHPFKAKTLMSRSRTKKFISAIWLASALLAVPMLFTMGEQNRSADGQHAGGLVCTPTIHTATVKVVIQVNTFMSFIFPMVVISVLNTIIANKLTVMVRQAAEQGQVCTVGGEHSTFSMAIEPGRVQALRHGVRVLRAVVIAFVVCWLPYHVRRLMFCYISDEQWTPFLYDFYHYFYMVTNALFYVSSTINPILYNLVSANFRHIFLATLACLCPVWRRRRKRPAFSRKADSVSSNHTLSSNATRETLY

Regarding `CC(=O)O[C@H]1C(=O)[C@@]2(C)[C@H]([C@H](OC(=O)c3ccccc3)[C@]3(O)C[C@H](OC(=O)[C@H](O)[C@@H](NC(=O)c4ccccc4)c4ccccc4)C(C)=C1C3(C)C)[C@]1(OC(C)=O)CO[C@@H]1C[C@@H]2O` [Paclitaxel, paclitaxel], in test [1], the “effect on tumor growth” value is recorded as “effective”.

With `COc1cccc(OC)c1-c1cc(C(=O)NC2(C(=O)O)C3CC4CC(C3)CC2C4)nn1-c1ccnc2cc(Cl)ccc12` (centres unmarked) [SR48692], in test [2], the apoptotic cell death entry is recorded as “increasing apoptotic cell death”; the clonogenic survival result is on record as “decreasing clonogenic survival”; the “radiosensitization of prostate cancer cells” value was “sensitized prostate cancer cells in a dose- and time-dependent manner”. Moreover, in test [3], the radiosensitization of xenografts result is listed as “efficiently radiosensitizedn” and the tumor burden result was “significantly reduced tumor burden”.

Regarding `C[C@H]1O[C@@H](O[C@H]2[C@@H](O)C[C@H](O[C@H]3[C@@H](O)C[C@H](O[C@H]4CC[C@@]5(C)[C@H](CC[C@@H]6[C@@H]5CC[C@]5(C)[C@@H](C7=CC(=O)OC7)CC[C@]65O)C4)O[C@@H]3C)O[C@@H]2C)C[C@H](O)[C@@H]1O` [digitoxin], in the test on NF-κB, the NF-κB inhibition entry is reported as “potent inhibitors of NF-κB”.

`C[C@H]1O[C@@H](O[C@H]2[C@@H](O)C[C@H](O[C@H]3[C@@H](O)C[C@H](O[C@H]4CC[C@@]5(C)[C@H](CC[C@@H]6[C@@H]5C[C@@H](O)[C@]5(C)[C@@H](C7=CC(=O)OC7)CC[C@]65O)C4)O[C@@H]3C)O[C@@H]2C)C[C@H](O)[C@@H]1O` [digoxin]: the NF-κB inhibition result with NF-κB was “potent inhibitors of NF-κB”.
